Results as given in US12528777B2, “Quinazolinones derivatives for treatment of non-alcoholic fatty liver disease, preparation and use thereof” (Council of Scientific and Industrial Research, priority 2020, dated 2026).
“Also recorded” adds a separate entry of the source.

Key:
Plasma stability assay = type: in vitro ADME, human; conditions: for Mean % remaining at 2 hrs in human Plasma: 1 μM, 37° C., 120 min, LC-MS/MS; for Plasma stability: human plasma, after 2 hours, with respect to Propantheline
Protocol: 1 mM Stock of test compound was prepared from 10 mM initial stock solution of compounds by diluting 10 μL of 10 mM stock with 90 μL of DMSO. Then 10 μL of 1 mM stock was diluted with 90 µL of DMSO to give 100 μM concentration. The frozen plasma was thawed at room temperature and centrifuged at 1400 rpm at 4° C., for 15 minutes. Approximately […] of the clear supernatant fraction was transferred to a separate tube and was used for the assay. Final working stock of 1 μM was prepared by diluting 3 μL of 100 μM with 297 μL of plasma. Plasma containing the test compound was incubated for 120 min at 37° C. in shaker with 500 rpm. 50 μL of aliquot of sample at 0, 15, 30, 60 and 120 minutes were precipitated with 150 μL of acetonitrile containing internal standard and centrifuged at 4000 rpm at 4° C. for 20 minutes. 120 μL of supernatant was diluted with 120 μL of water and analyzed by LC-MS/MS.

ATGL = assay: Western blot of ATGL level in HepG2 cells; type: cell-based; set-up: key to Increase in ATGL level: + = slight or in insignificant; ++ = Moderate; +++ and ++++ = active; +++ and ++++ = active; +++++ = very active; conditions: for EC50: fold increase of ATGL by densitometry, as % of 1.6 fold maximum with siCOP1, doses 10-5000 nM, read-out: EC50 (in-vitro); for ATGL level in HepG2 cells / Increase in ATGL level: western blot; for ATGL level in HepG2 cells: 24 hours, 10 μM screening or 50 nM-5 μM dose dependent; for Increase in ATGL level: HepG2 cells, score
Procedure, shortened: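 HepG2 cells were treated with compound 24 h (10 μM screen; 50 nM–5 μM dose series) and lysed. 30 μg protein was western blotted for ATGL, with actin as loading reference. ATGL increase was expressed as percent of the 1.6-fold siCOP1 maximum and plotted against log concentration for EC50.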

COP1 = COP1 (Homo sapiens, UniProt Q8NHY2); assay: Immunoprecipitation assay of COP1 autoubiquitination in HepG2 cells; type: cell-based; conditions: 5 μM, 24 hours, MG-132
Chain of COP1 (Q8NHY2 whole entry): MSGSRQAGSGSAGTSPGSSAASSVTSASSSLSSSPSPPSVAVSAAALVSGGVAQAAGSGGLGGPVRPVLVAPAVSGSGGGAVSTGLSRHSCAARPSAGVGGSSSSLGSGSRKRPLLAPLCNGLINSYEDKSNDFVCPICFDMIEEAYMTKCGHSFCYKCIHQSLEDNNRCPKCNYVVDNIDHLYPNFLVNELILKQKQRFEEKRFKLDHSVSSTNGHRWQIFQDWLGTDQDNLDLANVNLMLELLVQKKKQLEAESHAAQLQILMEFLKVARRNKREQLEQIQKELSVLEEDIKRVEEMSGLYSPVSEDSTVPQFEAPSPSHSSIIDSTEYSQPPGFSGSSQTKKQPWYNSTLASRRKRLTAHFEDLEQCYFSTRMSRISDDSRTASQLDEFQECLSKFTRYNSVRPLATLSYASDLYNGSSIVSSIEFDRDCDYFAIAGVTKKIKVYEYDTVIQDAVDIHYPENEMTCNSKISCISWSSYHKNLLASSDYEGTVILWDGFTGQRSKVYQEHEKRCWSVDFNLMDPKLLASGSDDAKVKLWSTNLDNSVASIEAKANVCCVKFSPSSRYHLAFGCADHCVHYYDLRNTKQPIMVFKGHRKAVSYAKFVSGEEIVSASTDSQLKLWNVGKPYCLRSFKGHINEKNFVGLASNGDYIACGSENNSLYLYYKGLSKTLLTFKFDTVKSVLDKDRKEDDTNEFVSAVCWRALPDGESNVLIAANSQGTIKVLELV
Protocol: COP1 is capable of auto ubiquitinating its own self and getting degraded via the proteasomal pathway. To probe into this, HepG2 cells were co-transfected with HA tagged Ubiquitin and myc-flag tagged COP1. The transfected cells were treated with 5 μM of compounds 9, 10, 107 and 238 for 24 hours. MG-132, a proteasomal inhibitor, was added 4 hours before harvesting the cells. Immune complexes were pulled down with anti-myc antibody and immunoblot was done using anti-HA antibody. […] Thus, the compounds of the present disclosure could be potent therapeutic targets by being able to block the proteasomal degradation of ATGL which would then be able to carry out its lipolytic action and reverse the symptoms of steatosis.
For checking the autoubiquitination status of COP1, HepG2 cells were cotransfected with 2 μg each of Myc-DDK-COP1 and HA-Ub plasmids using Lipofectamine 2000 reagent (Invitrogen) in OptiMEM media (HiMedia). The rest of the procedure is similar to that done for Myc-ATGL.

Row | Mean % remaining at 2 hrs in human Plasma (Plasma stability assay) [%] | Plasma stability (Plasma stability assay) | EC50 (ATGL) [nM] | SMILES | ATGL level in HepG2 cells (ATGL) | Increase in ATGL level (ATGL) | COP1 autoubiquitination in HepG2 cells (COP1)
1 | 80.70 | good plasma stability | 30.2 | COCCn1c(-c2cccnc2)nc2ccc(NC(=O)Nc3cccc(C(C)=O)c3)cc2c1=O [Compound 215, 1-(3-acetylphenyl)-3-(3-(2-methoxyethyl)-4-oxo-2-(pyridin-3-yl)-3,4-dihydroquinazolin-6-yl)urea] | increased ATGL level | – | –
2 | 20.6 | lower plasma stability | – | COCC(C)n1cnc2ccc(NC(=O)Nc3cccc(C(C)=O)c3)cc2c1=O (centres unmarked) [Compound 179, 1-(3-acetylphenyl)-3-(3-(1-methoxypropan-2-yl)-4-oxo-3,4-dihydroquinazolin-6-yl)urea] | – | +++++ | –
3 | – | – | – | COCCn1c(C)nc2ccc(NC(=O)Nc3cccc(C(C)=O)c3)cc2c1=O [Compound 107, 1-(3-acetylphenyl)-3-(3-(2-methoxyethyl)-2-methyl-4-oxo-3,4-dihydroquinazolin-6-yl)urea] | – | ++++ | effective in reducing; also recorded: markedly reduce COP1's auto ubiquitination property
4 | 16.9 | lower plasma stability | – | COCCn1cnc2ccc(NC(=O)Nc3cccc(C(C)=O)c3)cc2c1=O [Compound 9, 1-(3-acetylphenyl)-3-(3-(2-methoxyethyl)-4-oxo-3,4-dihydroquinazolin-6-yl)urea] | increased ATGL level | +++++ | effective in reducing; also recorded: markedly reduce COP1's auto ubiquitination property
5 | 73.9 | good plasma stability | 29.5 | COCCn1c(-c2ccncc2)nc2ccc(NC(=O)Nc3cccc(C(C)=O)c3)cc2c1=O [Compound 219, 1-(3-acetylphenyl)-3-(3-(2-methoxyethyl)-4-oxo-2-(pyridin-4-yl)-3,4-dihydroquinazolin-6-yl)urea] | increased ATGL level | – | –
6 | 55.50 | good plasma stability | 1.19 | CC(=O)c1cccc(NC(=O)Nc2ccc3ncn(CCCN4CCOCC4)c(=O)c3c2)c1 [Compound 139, 1-(3-acetylphenyl)-3-(3-(3-morpholinopropyl)-4-oxo-3,4-dihydroquinazolin-6-yl)urea] | increased ATGL level; also recorded: some sort of increase in ATGL level | +++ | –
7 | 98.1 | good plasma stability | 1.02 | COCCn1c(CN2CCCCC2)nc2ccc(NC(=O)Nc3cccc(C(C)=O)c3)cc2c1=O [Compound 238, 1-(3-acetylphenyl)-3-(3-(2-methoxyethyl)-4-oxo-2-(piperidin-1-ylmethyl)-3,4-dihydroquinazolin-6-yl)urea] | increased ATGL level; also recorded: most potent in increasing ATGL and COP1 levels; also recorded: increase in ATGL and COP1 levels | +++++ | markedly reduce COP1's auto ubiquitination property
